Data as given in PubChem BioAssay (NCI).
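Step 1: Grow cells in 96-well plates. Step 2: Expose to compound for 48 hours at 5 concentrations. Step 3: Interpolate endpoints linearly; if unreached, use highest concentration. GI50 = concentration required for 50% inhibition of growth. TGI is the concentration that stops growth completely.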

How the values were obtained:
Test in all cases: NCI-60 cell line screen, 48 h
[1] = test system: 786-0 renal
[2] = test system: A498 renal
[3] = test system: A549 NSCLC
[4] = test system: ACHN renal
[5] = test system: BT-549 breast
[6] = test system: CAKI-1 renal
[7] = test system: COLO 205 colon
[8] = test system: DU-145 prostate
[9] = test system: EKVX NSCLC
[10] = test system: HCC-2998 colon
[11] = test system: HCT-116 colon
[12] = test system: HCT-15 colon
[13] = test system: HL-60(TB) leukemia
[14] = test system: HOP-62 NSCLC
[15] = test system: HS 578T breast
[16] = test system: HT29 colon
[17] = test system: IGROV1 ovarian
[18] = test system: K-562 leukemia
[19] = test system: KM12 colon
[20] = test system: LOX IMVI melanoma
[21] = test system: M14 melanoma
[22] = test system: MCF7 breast
[23] = test system: MDA-MB-231 breast
[24] = test system: MDA-MB-435
[25] = test system: MOLT-4 leukemia
[26] = test system: NCI-H226 lung
[27] = test system: NCI-H23 lung
[28] = test system: NCI-H460 lung
[29] = test system: NCI-H522 lung
[30] = test system: NCI/ADR-RES ovarian
[31] = test system: OVCAR-3 ovarian
[32] = test system: OVCAR-4 ovarian
[33] = test system: OVCAR-5 ovarian
[34] = test system: OVCAR-8 ovarian
[35] = test system: RXF 393 renal
[36] = test system: SF-268 CNS
[37] = test system: SF-295 CNS
[38] = test system: SF-539 CNS
[39] = test system: SK-MEL-2 melanoma
[40] = test system: SK-MEL-28 melanoma
[41] = test system: SK-MEL-5 melanoma
[42] = test system: SK-OV-3 ovarian
[43] = test system: SN12C renal
[44] = test system: SNB-19 CNS
[45] = test system: SNB-75 CNS
[46] = test system: SR leukemia
[47] = test system: SW-620 colon
[48] = test system: T-47D breast
[49] = test system: TK-10 renal
[50] = test system: U251 CNS
[51] = test system: UACC-257 melanoma
[52] = test system: UACC-62 melanoma
[53] = test system: UO-31 renal

COc1cc2c(cc1OC)-c1c(c3ccc([N+](=O)[O-])cc3c(=O)n1CCCN=[N+]=[N-])C2=O
GI50 [1]: 50.4 µM
TGI [1]: > 100 µM
GI50 [2]: 40.7 µM
TGI [2]: > 100 µM
GI50 [3]: 56.6 µM
TGI [3]: > 100 µM
GI50 [4]: 19.4 µM
TGI [4]: > 100 µM
GI50 [5]: > 100 µM
TGI [5]: > 100 µM
GI50 [6]: 26.3 µM
TGI [6]: 70.7 µM
GI50 [7]: > 100 µM
TGI [7]: > 100 µM
GI50 [8]: 86.1 µM
TGI [8]: > 100 µM
GI50 [9]: > 100 µM
TGI [9]: > 100 µM
GI50 [10]: 83.9 µM
TGI [10]: > 100 µM
GI50 [11]: 31.5 µM
TGI [11]: > 100 µM
GI50 [12]: > 100 µM
TGI [12]: > 100 µM
GI50 [13]: 73 µM
TGI [13]: > 100 µM
GI50 [14]: 29.8 µM
TGI [14]: > 100 µM
GI50 [15]: > 100 µM
TGI [15]: > 100 µM
GI50 [16]: > 100 µM
TGI [16]: > 100 µM
GI50 [17]: 7.5 µM
TGI [17]: > 100 µM
GI50 [18]: 19.6 µM
TGI [18]: > 100 µM
GI50 [19]: > 100 µM
TGI [19]: > 100 µM
GI50 [20]: 25.3 µM
TGI [20]: > 100 µM
GI50 [21]: 20.3 µM
TGI [21]: 67.3 µM
GI50 [22]: 0.556 µM
TGI [22]: > 100 µM
GI50 [23]: > 100 µM
TGI [23]: > 100 µM
GI50 [24]: > 100 µM
TGI [24]: > 100 µM
GI50 [25]: 23.3 µM
TGI [25]: > 100 µM
GI50 [26]: > 100 µM
TGI [26]: > 100 µM
GI50 [27]: 40.5 µM
TGI [27]: > 100 µM
GI50 [28]: 11.4 µM
TGI [28]: > 100 µM
GI50 [29]: 11.7 µM
TGI [29]: > 100 µM
GI50 [30]: 31.7 µM
TGI [30]: > 100 µM
GI50 [31]: > 100 µM
TGI [31]: > 100 µM
GI50 [32]: > 100 µM
TGI [32]: > 100 µM
GI50 [33]: > 100 µM
TGI [33]: > 100 µM
GI50 [34]: 40.9 µM
TGI [34]: > 100 µM
GI50 [35]: > 100 µM
TGI [35]: > 100 µM
GI50 [36]: 41.7 µM
TGI [36]: > 100 µM
GI50 [37]: 30.1 µM
TGI [37]: > 100 µM
GI50 [38]: 36.4 µM
TGI [38]: > 100 µM
GI50 [39]: > 100 µM
TGI [39]: > 100 µM
GI50 [40]: > 100 µM
TGI [40]: > 100 µM
GI50 [41]: 42.6 µM
TGI [41]: > 100 µM
GI50 [42]: > 100 µM
TGI [42]: > 100 µM
GI50 [43]: 46.7 µM
TGI [43]: > 100 µM
GI50 [44]: > 100 µM
TGI [44]: > 100 µM
GI50 [45]: 86.2 µM
TGI [45]: > 100 µM
GI50 [46]: 0.509 µM
TGI [46]: 3.68 µM
GI50 [47]: 99.8 µM
TGI [47]: > 100 µM
GI50 [48]: > 100 µM
TGI [48]: > 100 µM
GI50 [49]: > 100 µM
TGI [49]: > 100 µM
GI50 [50]: 11.6 µM
TGI [50]: > 100 µM
GI50 [51]: > 100 µM
TGI [51]: > 100 µM
GI50 [52]: 51.9 µM
TGI [52]: > 100 µM
GI50 [53]: 42.4 µM
TGI [53]: > 100 µM
